Test results reported in PubChem BioAssay (NCI).
“And” between values parts separate entries of the source, which are not always exact repeats. Identical values can stand only once.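 Cultured in 96-well plates, cells were exposed to test compound for 48 hours across five concentrations. GI50: concentration for 50% inhibition of growth. TGI denotes the concentration required for complete inhibition of growth.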

Columns and labels:
Assay in all cases: DTP human tumour cell line panel, 48 h
SR leukemia = system: SR leukemia
SNB-78 CNS = system: SNB-78 CNS
RXF 393 renal = system: RXF 393 renal
SK-OV-3 ovarian = system: SK-OV-3 ovarian
XF 498 CNS = system: XF 498 CNS
SK-MEL-2 melanoma = system: SK-MEL-2 melanoma
RXF-631 renal = system: RXF-631 renal
KM20L2 colon = system: KM20L2 colon
T-47D breast = system: T-47D breast
MDA-MB-231 breast = system: MDA-MB-231 breast

Row | SMILES | TGI (SR leukemia) | TGI (SNB-78 CNS) | TGI (RXF 393 renal) | TGI (SK-OV-3 ovarian) | TGI (XF 498 CNS) | TGI (SK-MEL-2 melanoma) | TGI (RXF-631 renal) | TGI (KM20L2 colon) | GI50 (SR leukemia) | GI50 (SNB-78 CNS) | GI50 (RXF 393 renal) | GI50 (KM20L2 colon) | GI50 (SK-OV-3 ovarian) | GI50 (XF 498 CNS) | GI50 (SK-MEL-2 melanoma) | TGI (T-47D breast) | TGI (MDA-MB-231 breast)
1 | Nc1ncnc2c1ncn2COC/C=C/I | > 100 µM | > 100 µM | > 100 µM | > 100 µM | > 100 µM | > 100 µM | > 100 µM |  |  |  |  |  |  |  |  |  | 
2 | CCOc1cc[n+](C(=C=[N-])C#N)cc1 | > 100 µM | > 100 µM | > 100 µM | > 100 µM | > 100 µM |  | > 100 µM | > 100 µM |  |  |  |  |  |  |  |  | 
3 | N#CCCn1c(CCC(=O)Nc2ccc(Cl)cc2Cl)n[nH]c1=S | > 100 µM | > 100 µM | > 100 µM | > 100 µM | > 100 µM | > 100 µM | > 100 µM | > 100 µM |  |  |  |  |  |  |  |  | 
4 | Cc1ccc(SSCCCCS(=O)O)cc1 |  | > 100 µM | 29.1 µM | 71 µM | 32 µM | 68.5 µM | 77.6 µM | 46.9 µM |  |  |  |  |  |  |  |  | 
5 | Cc1ccccc1NC(=O)CC(=O)n1nc(-c2ccccc2)c(N=Nc2ccc([N+](=O)[O-])cc2)c1-c1ccccc1 | > 100 µM | > 100 µM | 82 µM | 57.7 µM | 51.7 µM | > 100 µM | 41.6 µM | 32.8 µM |  |  |  |  |  |  |  |  | 
6 | CCOc1ccccc1NC(=O)C(=O)c1c(O)c2ccc(O)cc2oc1=O | > 100 µM | > 100 µM | > 100 µM | > 100 µM |  | > 100 µM | > 100 µM | > 100 µM |  |  |  |  |  |  |  |  | 
7 | CCCCCC/C(CC(=O)CCC(=O)NCCc1ccccc1)=N\NC(=O)c1ccc2ccccc2c1O |  | > 100 µM | > 100 µM |  | > 100 µM | 53.7 µM | > 100 µM | > 100 µM |  |  |  |  |  |  |  |  | 
8 | CC(=O)N1CCN(C=S)CC1 | > 100 µM | > 100 µM | > 100 µM | > 100 µM | > 100 µM |  | > 100 µM | > 100 µM |  |  |  |  |  |  |  |  | 
9 | CN(C)c1ccc(/C=c2\sc3nnc(Cc4ccccc4)n3c2=O)cc1 | > 100 µM | > 100 µM | > 10 µM and 97.3 µM | > 100 µM | > 100 µM | > 100 µM |  | > 100 µM | > 100 µM | > 100 µM | > 10 µM | > 100 µM | > 100 µM | > 100 µM | > 100 µM |  | 
10 | N#CC1([N+](=O)[O-])C=C1c1ccccc1 (stereo not drawn) | 70.3 µM | > 100 µM |  | > 100 µM |  | > 100 µM | > 100 µM | > 100 µM |  |  |  |  |  |  |  |  | 
11 | CN/N=C(/CC(=O)c1sc(NNC(C)=O)nc1C)C(=O)Nc1ccc(OC)cc1OC | > 100 µM | > 100 µM |  |  | > 100 µM | > 100 µM |  | > 100 µM |  |  |  |  |  |  |  |  | 
12 | CCCCCCCCC(=O)NCCN(CCN)C(=O)CCCCCCCC | 13.8 µM | 23.4 µM | 34.1 µM | 29.9 µM | 5.43 µM | 30.1 µM | 13 µM | 9.55 µM |  |  |  |  |  |  |  | 32.9 µM | 10.3 µM
13 | OCC(O)C(OC1OC(CO)C(O)C(O)C1O)c1nn(-c2ccc(Cl)cc2)c2nc3cc(Cl)ccc3nc12 (stereo not drawn) | > 100 µM | > 100 µM | > 100 µM | > 100 µM | > 100 µM |  | > 100 µM | > 100 µM |  |  |  |  |  |  |  |  | 
14 | CCOC(=O)C1C(=O)c2cccc(OC)c2C2COC(=O)N12 (stereo not drawn) | > 100 µM |  | > 100 µM | > 100 µM | > 100 µM | > 100 µM | > 100 µM | > 100 µM |  |  |  |  |  |  |  |  | 
15 | N#CC12CC3(CCC1CCC1(C2)OCCO1)OCCO3 (stereo not drawn) | > 100 µM | > 100 µM | > 100 µM | > 100 µM | > 100 µM | > 100 µM | > 100 µM | > 100 µM |  |  |  |  |  |  |  |  | 
16 | CC(=O)Nc1ccccc1S(=O)c1ccccc1 (stereo not drawn) |  | > 100 µM | > 100 µM | > 100 µM | > 100 µM | > 100 µM | > 100 µM | > 100 µM |  |  |  |  |  |  |  |  | 

Row | SMILES | TGI (SR leukemia) | TGI (SNB-78 CNS) | TGI (RXF 393 renal) | TGI (SK-OV-3 ovarian) | TGI (XF 498 CNS) | TGI (SK-MEL-2 melanoma) | TGI (RXF-631 renal) | TGI (KM20L2 colon) | GI50 (SR leukemia) | GI50 (SNB-78 CNS) | GI50 (RXF 393 renal) | GI50 (KM20L2 colon) | GI50 (SK-OV-3 ovarian) | GI50 (XF 498 CNS) | GI50 (SK-MEL-2 melanoma) | TGI (T-47D breast) | TGI (MDA-MB-231 breast)
17 | COC(=O)C(C(=O)C(=O)Nc1ccc(N)cc1[N+](=O)[O-])c1nc2ccc(Cl)cc2[nH]c1=O (stereo not drawn) |  | > 100 µM | > 100 µM | > 100 µM | > 100 µM | > 100 µM |  | > 100 µM |  |  |  |  |  |  |  |  | 
18 | O=C(OCc1ccccc1)c1ccccc1-c1c2ccc(=O)cc-2oc2cc(OCc3ccccc3)ccc12 | 18.8 µM | > 100 µM | 34 µM |  | 33.6 µM | 46.7 µM |  | > 100 µM |  |  |  |  |  |  |  |  | 
19 | CC1=C(C(=O)NCc2ccccc2)C(c2ccccc2O)C(C(=O)NCc2ccccc2)=C(C)N1 | > 65.9 µM | 95.2 µM | 34.4 µM | 64.9 µM | 31.2 µM | 32.6 µM |  | 37 µM |  |  |  |  |  |  |  |  | 
20 | CCCCCCC(=O)CC(=O)C(=O)Nc1ccccc1C | > 100 µM | > 100 µM | > 100 µM | > 100 µM | > 100 µM | > 100 µM | > 100 µM | > 100 µM |  |  |  |  |  |  |  |  | 
21 | C/C(=N\NS(=O)(=O)c1ccccc1)c1ccc[n+]([O-])n1 | > 100 µM | > 100 µM |  | > 100 µM |  |  | > 100 µM | > 100 µM |  |  |  |  |  |  |  |  | 
22 | CCc1cccc(CC)c1NC(=O)C1=CNC(C)=C(C(=O)Nc2c(CC)cccc2CC)C1c1ccc(O)c(OC)c1 (stereo not drawn) |  | > 100 µM | 93.9 µM | > 100 µM | 67.3 µM | 91.8 µM | > 100 µM | > 100 µM |  |  |  |  |  |  |  |  | 
23 | CCN(CC)c1ccc(N=C2C=CC(=C(C#N)C#N)c3ccccc32)c(C)c1 |  | 6.42 µM | 3.24 µM | 24 µM | 2.89 µM | 5.48 µM |  | 6.75 µM |  |  |  |  |  |  |  |  | 
24 | O=S1Cc2ccccc2CSS1 (stereo not drawn) | 51.2 µM | 62 µM | 13.8 µM | > 100 µM | 34 µM |  | 48.5 µM | 41.9 µM |  |  |  |  |  |  |  |  | 
25 | CC(=O)CC(=O)ON(C)C(=O)Cc1ccccc1 | > 100 µM | > 100 µM | > 100 µM | > 100 µM | > 100 µM |  |  | > 100 µM |  |  |  |  |  |  |  |  | 
26 | COc1c(OC2OC(CO)C(O)C(O)C2O)cc2c(c1OC)-c1ccc(OC)c(=O)cc1[C@@H](NC(C)=O)CC2 (stereo partly drawn) | > 100 µM | > 100 µM | > 90.4 µM | > 100 µM | > 93 µM | > 100 µM | > 100 µM | > 100 µM |  |  |  |  |  |  |  |  | 
27 | NNC(=O)N/N=C1/C(=O)N(c2ccc(Cl)c(Cl)c2)C(=O)C(=O)C1c1nc2ccccc2o1 (stereo not drawn) |  | > 100 µM |  | > 100 µM |  | > 100 µM | > 100 µM | > 100 µM |  |  |  |  |  |  |  |  | 
28 | Cc1c(C(=O)Nc2ccc(Cl)cc2)nc(N)nc1-c1cccc(Cl)c1 | > 100 µM | > 100 µM | > 100 µM | > 100 µM |  |  | > 100 µM | > 100 µM |  |  |  |  |  |  |  |  | 
29 | COc1ccc([Se]c2ccc(OC)cc2)cc1 |  |  | > 100 µM | > 100 µM | > 100 µM | > 100 µM |  | > 100 µM |  |  |  |  |  |  |  |  | 
30 | C=C1CC(CC(=O)C(C)CC2CC(=C)C(=O)O2)OC1=O (stereo not drawn) | 24.1 µM | 49.7 µM | 37.9 µM | > 100 µM | 43.3 µM | 25.3 µM | > 100 µM | > 100 µM |  |  |  |  |  |  |  |  | 
31 | CC(=O)OC1(C#N)CC2OC1C1NC21 (stereo not drawn) |  | > 100 µM | > 100 µM | > 100 µM | > 100 µM | > 100 µM | > 100 µM | > 100 µM |  |  |  |  |  |  |  |  | 
